Measurements as given in US10689595B2 (THE REGENTS OF THE UNIVERSITY OF CALIFORNIA, priority 2016, dated 2020).
Each block holds one molecule with its values, some of them ahead of it.

How the values were obtained:
[1] = biological target: T1, ovine COX-1 (Ovis aries, UniProt P05979); experiment: COX Fluorescent Inhibitor Screening Assay, COX-1; type: biochemical; conditions: read-out: % inhibition at 100 μM COX-1, triplicate
T1 construct: purchased Cayman Chemical 700100
T1 sequence (P05979 25-600): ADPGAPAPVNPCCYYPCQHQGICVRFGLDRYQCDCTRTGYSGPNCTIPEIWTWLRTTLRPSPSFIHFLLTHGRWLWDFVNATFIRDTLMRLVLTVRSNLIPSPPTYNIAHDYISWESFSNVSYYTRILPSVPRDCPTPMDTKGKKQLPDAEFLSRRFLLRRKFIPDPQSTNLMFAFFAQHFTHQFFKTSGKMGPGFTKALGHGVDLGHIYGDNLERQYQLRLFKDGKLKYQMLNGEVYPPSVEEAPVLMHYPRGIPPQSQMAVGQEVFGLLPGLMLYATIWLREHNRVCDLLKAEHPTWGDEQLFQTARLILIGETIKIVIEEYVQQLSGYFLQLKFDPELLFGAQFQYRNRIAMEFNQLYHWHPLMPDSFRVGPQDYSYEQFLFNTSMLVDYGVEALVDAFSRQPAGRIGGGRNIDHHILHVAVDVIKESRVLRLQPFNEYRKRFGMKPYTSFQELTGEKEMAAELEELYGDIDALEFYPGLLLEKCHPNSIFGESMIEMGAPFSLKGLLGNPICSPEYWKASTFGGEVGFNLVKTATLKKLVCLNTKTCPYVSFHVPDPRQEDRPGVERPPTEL
Procedure: (§1) Briefly, to a series of supplied reaction buffer solutions (150 μl, 100 mM Tris-HCl, pH 8.0) with either COX-1 or COX-2 (10 μl) enzyme in the presence of Heme (10 μl) and fluorometric substrate (10 μl) were added 10 μl of 100 μM concentration of the test compound solutions. The reactions were initiated by adding 10 μl of ARA solution and then incubated for two minutes at room temperature. Percent inhibition was calculated by comparison from the 100% initial activity sample value (no inhibitor).

[2] = biological target: T2, human COX-2 (Homo sapiens, UniProt P35354); experiment: COX Fluorescent Inhibitor Screening Assay, COX-2; type: biochemical; conditions: for inhibition at 100 µM: read-out: % inhibition at 100 μM COX-2, triplicate; for COX-2 activity changes: up to 100 μM concentrations
T2 construct: purchased Cayman Chemical 700100
T2 sequence (P35354 18-604): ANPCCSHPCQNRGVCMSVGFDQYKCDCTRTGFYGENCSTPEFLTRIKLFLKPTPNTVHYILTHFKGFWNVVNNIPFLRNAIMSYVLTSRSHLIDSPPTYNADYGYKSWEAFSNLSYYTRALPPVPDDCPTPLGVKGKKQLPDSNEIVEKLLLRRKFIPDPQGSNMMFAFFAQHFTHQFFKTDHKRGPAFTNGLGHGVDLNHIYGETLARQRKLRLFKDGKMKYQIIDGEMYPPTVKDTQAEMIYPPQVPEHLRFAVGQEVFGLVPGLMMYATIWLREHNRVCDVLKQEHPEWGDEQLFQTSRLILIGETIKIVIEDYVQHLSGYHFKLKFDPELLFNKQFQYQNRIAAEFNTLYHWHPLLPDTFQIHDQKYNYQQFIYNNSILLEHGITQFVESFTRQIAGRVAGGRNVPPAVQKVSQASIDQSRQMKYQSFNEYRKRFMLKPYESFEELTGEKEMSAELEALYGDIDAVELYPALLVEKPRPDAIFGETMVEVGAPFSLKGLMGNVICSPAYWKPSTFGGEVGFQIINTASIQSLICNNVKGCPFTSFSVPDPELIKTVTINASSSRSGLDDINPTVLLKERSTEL
Procedure: as §1

[3] = biological target: T3, mTRPV1 (Mus musculus, UniProt Q704Y3); experiment: calcium influx assay in HEK293 cells heterologously expressing mTRPV1; type: cell-based; conditions: for concentration that produced significant Ca2+ influx: HEK293 cells expressing mTRPV1, fluo-4, FIG. 4; for TRPV1 channel activation: at low doses
T3 construct: GFP; expressed in transfected cells; host or cells: HEK-293 (transient transfection; plasmid a gift from Jie Zheng, UC Davis)
T3 sequence (Q704Y3 whole entry): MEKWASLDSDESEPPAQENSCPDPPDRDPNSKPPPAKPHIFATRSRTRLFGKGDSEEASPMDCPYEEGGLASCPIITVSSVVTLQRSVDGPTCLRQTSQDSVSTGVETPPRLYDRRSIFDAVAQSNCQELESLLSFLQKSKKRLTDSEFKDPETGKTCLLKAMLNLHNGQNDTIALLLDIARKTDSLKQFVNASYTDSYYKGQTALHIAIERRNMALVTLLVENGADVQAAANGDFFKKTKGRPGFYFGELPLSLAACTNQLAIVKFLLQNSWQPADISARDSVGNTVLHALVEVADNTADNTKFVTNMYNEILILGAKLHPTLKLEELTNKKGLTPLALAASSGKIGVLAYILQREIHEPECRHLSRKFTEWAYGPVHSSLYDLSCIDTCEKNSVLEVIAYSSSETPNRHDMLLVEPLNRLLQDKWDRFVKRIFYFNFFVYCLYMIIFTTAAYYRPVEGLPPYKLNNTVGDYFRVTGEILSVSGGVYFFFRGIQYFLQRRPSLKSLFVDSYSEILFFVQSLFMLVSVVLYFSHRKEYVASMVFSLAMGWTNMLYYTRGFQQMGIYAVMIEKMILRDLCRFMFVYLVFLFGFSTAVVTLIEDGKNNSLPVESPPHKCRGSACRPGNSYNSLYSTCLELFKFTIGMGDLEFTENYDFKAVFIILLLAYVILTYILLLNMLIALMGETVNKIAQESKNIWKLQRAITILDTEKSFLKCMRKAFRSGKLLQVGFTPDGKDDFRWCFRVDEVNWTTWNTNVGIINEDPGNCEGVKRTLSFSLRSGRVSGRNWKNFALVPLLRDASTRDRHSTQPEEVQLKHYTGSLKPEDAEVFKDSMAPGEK
Procedure: The mTRPV1 plasmid that contains a GFP tag was a generous gift from Professor Jie Zheng at University of California, Davis. The HEK-293 cells were cultured in a poly-D-lysine coated T75 dish at an initial density of 4×10^5 cells/dish and maintained in culture medium (DMEM+10% FBS+100 units/ml peniclillin, 0.1 mg/ml streptomycine) in an incubator at 37° C. with 5% CO2 and 95% humidity. At 50% confluence, the HEK-293 cells were transfected with 10 μg of mTRPV1 plasmid using Lipofectamine 2000 (Invitrogen Corporation, Carlsbad, Calif., USA) in antibiotic—as well as serum-free culture medium. After 6 hour incubation, the serum-free medium was replaced with normal culture medium and the cells were cultured for another 48 hours. The transfection efficiency was determined by examined the GFP expression as well as the Ca^2+ response after exposure to capsaicin.
The HEK-293 cells transiently transfected mTRPV1 were planted onto poly-D-lysine (Sigma-Aldrich, St. Louis, Mo., USA) coated black-well, clear-bottom, 96-well plates (Corning, Coring, N.Y., USA) at an initial density of 40,000/well. The cells were then cultured in DMEM medium for 18-24 hours as described previously (Ref. 38). Briefly, the growth medium was removed and replaced with dye loading buffer (100 μl/well) containing 4 μM fluo-4 and 0.5 mg/ml BSA in Locke's buffer (in mM: 8.6 HEPES, 5.6 KCl, 154 NaCl, 5.6 Glucose, 1.0 MgCl2, 2.3 CaCl2), 0.0001 glycine, pH 7.4). After 1 hour incubation in dye loading buffer, cells were washed four times in fresh Locke's buffer and transferred to the plate chamber of FLIPR^TETRA (Molecular Devices, Sunnyvale, Calif., USA). The final volume of Locke's buffer in each well was 150 μl. The cells were excited at 488 nm and Ca^2+ bound fluo-4 emission at 535 nm was recorded. Fluorescence readings were taken every 1 second for 120 s to establish the baseline. Different concentrations (4×) of compounds were added to the cells from a compound plate in a volume of 50 μl at a rate of 30 μl/s using a programmable robotic system. The fluorescence signals were recorded for an additional 380 seconds. All the experiments were performed at room temperature. The Ca^2+ data were represented as Fluo-4 fluorescence units (F/Fo). For quantifying the Ca^2+ response, the area under the curve (AUC) was used. Graphing and statistical analyses were performed using GraphPad Prism software (GraphPad Software Inc., San Diego, Calif.). Statistical significance was determined by an ANOVA and, where appropriate, a Dunnett's multiple comparison test and p values below 0.05 was considered statistically significant.
The influence of 20-HETE, 20-HEPE, and 22-HDoHe on mTRPV1 was measured in HEK293 cells heterologously expressed mTRPV1 using calcium influx assay. […] The discrepancy between previous study and current study is likely due to the fact that the mTRPV1 was used in the current study, while the hTRPV1 was used in the previous study.

[4] = system: naïve rats; experiment: von Frey mechanical allodynia assay in naïve rats; type: in vivo, Sprague-Dawley rats; conditions: methyl esters, 1 μg intraplantar, FIG. 6A
Procedure: Male Sprague-Dawley rats weighing approximately 250-300 grams were obtained from Charles River Laboratories. On the day of the test, rats were brought to the testing apparatus and allowed to acclimate. The apparatus is a raised metal mesh platform with clear acrylic chambers to enclose rats but allow them to move freely. After 30 minutes the rats were tested with a von Frey aesthesiometer for their non-treated baseline withdrawal thresholds using a rigid tip on the plantar surface of the rat hind paw though the mesh floor. The scores are grams of force applied to the hind paw required to elicit a withdrawal. The pretreatment baseline score was considered the pain-free baseline (BL) and was assigned 100% for further response calculations.
For the pain assay, 20-HETE methyl ester, 20-HEPE methyl ester, or 22-HDoHE methyl ester, formulated in 10% EtOH in saline, were injected intraplantar in naïve rats. Withdrawal thresholds were measured at 15, 30, 60, 90, 120 and 150 minutes post injection. Reported scores are calculated as a percent of the pretreatment baseline score with an average of 6 rats (3 trials per rat) with SEM for the group.
The methyl esters compounds of 20-HETE, 20-HEPE and 22-HDoHE were tested for their ability to induce mechanical allodynia in vivo. For the assay, naïve rats were injected intraplantar with 1 μg of each ester and tested with an electronic von Frey aesthesiometer.

[5] = system: B16F10 melanoma; experiment: B16F10 melanoma primary tumor growth model; type: in vivo; conditions: 0.5 mg/kg/day by mini-pumps, 2-wk treatment, C57BL/6 mice
Procedure: FIG. 9 is a photograph and a bar graph showing systematic treatment of 0.5 mg/kg/day 22-HDoHE inhibited ˜50% of B16F10 melanoma growth in C57BL/6 male mice. B16F10 melanoma cells (200,000 cells per mouse) were sub-Q injected into C57BL/6 mice to induce primary tumor growth of melanoma, then the mice were treated with 22-HDoHE using mini-pumps at a dose of 0.5 mg/kg/day. After 2-wk treatment, the mice were sacrificed to dissect the tumors for analysis.
Angiogenesis has been well established to play an essential role in cancer, through providing nutrients and oxygen to the tumors tissues to promote tumor progression. The effect of 22HDoHE on primary tumor growth in mice was studied using a highly aggressive B16F10 melanoma model in C57BL/6 mice.

[6] = system: human dermal lymphatic endothelial cells (HMVEC-dLy); experiment: VEGF-C-induced tube formation; type: cell-based; conditions: dose-dependent manner, FIG. 10
Procedure: The effect of 22-HDoHE on lymphangiogenesis was evaluated using a vascular endothelial growth factor-C (VEGF-C)-induced tube formation in human dermal lymphatic endothelial cells (HMVEC-dLy).

[7] = system: human umbilical vein endothelial cells (HUVECs); experiment: VEGF-induced endothelial cell migration (Boyden chamber); type: cell-based; conditions: dose range of 1-3 μM, 10 ng/mL VEGF, 6 hours
Procedure: FIG. 8 is a series of photographs showing 22-HDoHE inhibition of VEGF-induced endothelial cell migration in HUVEC cells. The cell migration assay was conducted using a standard Boyden chamber assay with 10 ng/mL VEGF as chemoattractant, and the assay time was 6 hours.
It was tested whether 22-HDoHE has direct anti-angiogenic actions in primary endothelial cells, using a VEGF-induced endothelial cell migration in human umbilical vein endothelial cells (HUVECs).

[8] = system: HMVEC-dLy; experiment: complete medium-induced HMVEC-dLy migration, Boyden chamber assay; type: cell-based, human; conditions: FIG. 11
[9] = system: VEGF-induced angiogenesis; experiment: Matrigel plug angiogenesis assay; type: in vivo; conditions: co-addition in Matrigel with 100 ng VEGF, C57BL/6 mice
Procedure: FIG. 7A is a simplified scheme of the animal experiment: Matrigel containing VEGF (angiogenesis inducer) and 22-HDoHE or vehicle were injected into C57BL/6 mice, after 4-7 days of treatment, the Matrigel plugs were dissected and subjected to angiogenesis analysis.
Angiogenesis, the process of formation of new blood vessels from pre-existing vessels, has been established to be critical for multiple human diseases including cancer. Vascular endothelial growth factor (VEGF) is the most important angiogenesis inducer.

[10] = biological target: hTRPV1 (Homo sapiens, UniProt Q8NER1); conditions: 10 μM, previous study (Ref 24); cited from earlier work
Sequence of hTRPV1 (Q8NER1 whole entry): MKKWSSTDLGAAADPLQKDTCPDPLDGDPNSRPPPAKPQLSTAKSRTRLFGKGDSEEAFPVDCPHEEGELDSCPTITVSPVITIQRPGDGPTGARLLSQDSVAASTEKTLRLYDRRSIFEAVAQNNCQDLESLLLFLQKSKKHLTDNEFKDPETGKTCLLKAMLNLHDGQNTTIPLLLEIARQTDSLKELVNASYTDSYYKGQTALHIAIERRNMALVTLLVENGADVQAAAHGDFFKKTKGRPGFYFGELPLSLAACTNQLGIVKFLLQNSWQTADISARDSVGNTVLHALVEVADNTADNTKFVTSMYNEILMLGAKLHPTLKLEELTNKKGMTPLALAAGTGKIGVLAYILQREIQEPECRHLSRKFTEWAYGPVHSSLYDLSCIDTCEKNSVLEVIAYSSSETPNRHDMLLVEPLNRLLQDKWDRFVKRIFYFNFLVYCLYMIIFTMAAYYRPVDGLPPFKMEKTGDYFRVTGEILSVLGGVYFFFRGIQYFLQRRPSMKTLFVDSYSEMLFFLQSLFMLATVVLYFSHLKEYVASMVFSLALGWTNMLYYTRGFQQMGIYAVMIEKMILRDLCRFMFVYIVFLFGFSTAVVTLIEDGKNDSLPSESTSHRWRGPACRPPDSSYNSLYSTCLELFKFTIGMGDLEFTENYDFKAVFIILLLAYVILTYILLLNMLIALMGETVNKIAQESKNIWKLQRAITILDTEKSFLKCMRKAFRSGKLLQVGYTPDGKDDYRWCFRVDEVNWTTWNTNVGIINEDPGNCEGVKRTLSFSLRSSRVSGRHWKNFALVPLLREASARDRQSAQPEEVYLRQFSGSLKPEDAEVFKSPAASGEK

Compound: O=C(O)CCC/C=C\C/C=C\C/C=C\C/C=C\C/C=C\CCO [20-HEPE, (5Z,8Z,11Z,14Z,17Z)-20-Hydroxyicosa-5,8,11,14,17-pentaenoic Acid]
inhibition at 100 µM [1]: 37.1% | inhibition at 100 µM [2]: 0% | COX-2 activity changes ([2]; FIG. 5): No COX-2 activity changes | concentration that produced significant Ca2+ influx [3]: 10 µM | TRPV1 channel activation [3]: did not activate TRPV1 channels

Compound: COC(=O)CC/C=C\C/C=C\C/C=C\C/C=C\C/C=C\C/C=C\CCO [22-HDoHE]
nociceptive (withdrawal) thresholds, von Frey [4]: neither 20-HEPE nor 22-HDoHE induced a similar decrease in thresholds

Compound: COC(=O)CCC/C=C\C/C=C\C/C=C\C/C=C\CCCCCO
nociceptive (withdrawal) thresholds, von Frey [4]: decreased nociceptive thresholds acutely

Compound: COC(=O)CCC/C=C\C/C=C\C/C=C\C/C=C\C/C=C\CCO
nociceptive (withdrawal) thresholds, von Frey [4]: neither 20-HEPE nor 22-HDoHE induced a similar decrease in thresholds

Compound: O=C(O)CCC/C=C\C/C=C\C/C=C\C/C=C\CCCCCO [20-HETE, (5Z,8Z,11Z,14Z)-20-Hydroxyicosa-5,8,11,14-tetraenoic Acid]
inhibition at 100 µM [1]: 27.5% | hTRPV1 activation [10]: activates hTRPV1 | inhibition at 100 µM [2]: 0% | COX-2 activity changes ([2]; FIG. 5): No COX-2 activity changes | mTRPV1 activation ([3]; at or below concentration of 10 uM): does not appear to be an mTRPV1 activator | Ca2+ response ([3]; at the concentrations examined, FIG. 4): marginal Ca^2+ response

Now from value to molecule, other results behind:

COX inhibitory activity (% inhibition), COX-2 ([2]; FIG. 5): Less than 0%
Compound: CC/C=C\C/C=C\C/C=C\C/C=C\C/C=C\CCCC(=O)O [EPA, eicosapentaenoic acid, reference compound]

inhibition at 100 µM [1]: 38.1% | inhibition at 100 µM [2]: 1% | COX-2 activity changes ([2]; FIG. 5): No COX-2 activity changes | concentration that produced significant Ca2+ influx [3]: ~3 µM | TRPV1 channel activation [3]: did not activate TRPV1 channels
Compound: O=C(O)CC/C=C\C/C=C\C/C=C\C/C=C\C/C=C\C/C=C\CCO [22-HDoHE, (4Z,7Z,10Z,13Z,16Z,19Z)-22-Hydroxydocosa-4,7,10,13,16,19-hexaenoic Acid]
reduction of B16F10 tumor growth [5]: ~50% | VEGF-C-induced tube formation in HMVEC-dLy cells [6]: significantly inhibited | VEGF-induced HUVECs migration [7]: significantly inhibited | complete medium-induced HMVEC-dLy migration [8]: significantly inhibit | VEGF-induced angiogenesis in Matrigel plugs [9]: almost abolished VEGF-induced angiogenesis
